Measurements published in patent publication US20070004660A1, “Synergistic Modulation of Flt3 Kinase Using Alkylquinolines and Alkylquinazolines” (priority 2005, published 2007).
Where a name gives a salt, the structure may show the parent alone.

Target: T1, wild-type FLT3 receptor (Homo sapiens, UniProt P36888)
T1 construct: host or cells: Baf3 (murine B cell lymphoma line), stably transfected
T1 sequence (P36888 27-993): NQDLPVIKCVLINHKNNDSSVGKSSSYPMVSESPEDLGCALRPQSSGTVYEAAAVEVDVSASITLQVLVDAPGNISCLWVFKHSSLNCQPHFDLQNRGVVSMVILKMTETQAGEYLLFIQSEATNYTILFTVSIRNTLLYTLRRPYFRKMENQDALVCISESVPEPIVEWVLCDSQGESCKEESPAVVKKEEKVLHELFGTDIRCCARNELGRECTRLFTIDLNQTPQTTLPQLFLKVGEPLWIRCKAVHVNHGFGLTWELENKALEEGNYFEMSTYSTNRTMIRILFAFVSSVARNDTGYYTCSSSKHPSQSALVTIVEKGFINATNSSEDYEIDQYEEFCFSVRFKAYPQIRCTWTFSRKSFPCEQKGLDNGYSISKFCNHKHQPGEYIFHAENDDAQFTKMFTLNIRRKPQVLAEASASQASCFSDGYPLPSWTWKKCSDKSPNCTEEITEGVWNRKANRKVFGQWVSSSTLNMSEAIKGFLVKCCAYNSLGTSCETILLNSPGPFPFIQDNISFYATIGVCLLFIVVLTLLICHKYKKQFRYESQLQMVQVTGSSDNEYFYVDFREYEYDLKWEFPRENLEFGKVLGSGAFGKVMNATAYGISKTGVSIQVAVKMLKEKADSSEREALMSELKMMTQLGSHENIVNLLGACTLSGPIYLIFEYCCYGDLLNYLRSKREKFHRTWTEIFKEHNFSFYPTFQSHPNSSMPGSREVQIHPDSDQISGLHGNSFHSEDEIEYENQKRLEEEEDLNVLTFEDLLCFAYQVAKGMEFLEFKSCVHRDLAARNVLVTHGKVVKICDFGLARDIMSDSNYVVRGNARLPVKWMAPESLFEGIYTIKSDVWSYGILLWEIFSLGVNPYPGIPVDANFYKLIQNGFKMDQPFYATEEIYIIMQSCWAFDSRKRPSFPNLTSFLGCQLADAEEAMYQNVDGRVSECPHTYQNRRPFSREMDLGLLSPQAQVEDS
Assay: Cell-based FLT3 receptor ELISA (FLT ligand-induced phosphorylation in Baf3 FLT3 cells)
Settings: 100 ng/mL Flt ligand, uncertainty ±20%
Summary of the method: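 Receptor phosphotyrosine measured by sandwich ELISA (anti-FLT3 capture, HRP anti-pTyr, luminescence) in FLT3-transfected murine Baf3 cells given 1 h compound pretreatment and 10 min 100 ng/mL FLT ligand after overnight low-serum starvation; triplicates, IC50 from nonlinear regression.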

Structure (SMILES) | IC50 [µM]
CN1CCN(CCCOc2ccc3c(C4CCN(C(=O)Nc5ccc(N6CCCC6)cc5)CC4)ncnc3c2)CC1 [Example 158, 4-{7-[3-(4-Methyl-piperazin-1-yl)-propoxy]-quinazolin-4-yl}-piperidine-1-carboxylic acid (4-pyrrolidin-1-yl-phenyl)-amide] | 0.0004
O=C(Nc1ccc(N2CCCC2)cc1)N1CCC(c2ncnc3cc(N4CCC(F)CC4)ccc23)CC1 [Compound 195, 4-[7-(4-Fluoro-piperidin-1-yl)-quinazolin-4-yl]-piperidine-1-carboxylic acid (4-pyrrolidin-1-yl-phenyl)-amide] | 0.081
CCNC(=O)N1CCN(c2ccc3c(C4CCN(C(=O)Nc5ccc(N6CCCC6)cc5)CC4)ncnc3c2)CC1 [Compound 199, 4-{4-[1-(4-Pyrrolidin-1-yl-phenylcarbamoyl)-piperidin-4-yl]-quinazolin-7-yl}-piperazine-1-carboxylic acid ethylamide] | 0.04
CC(=O)N1CCC(COc2ccc3c(C4CCN(C(=O)Nc5ccc(N6CCCC6)cc5)CC4)ncnc3c2)CC1 [Example 163, 4-[7-(1-Acetyl-piperidin-4-ylmethoxy)-quinazolin-4-yl]-piperidine-1-carboxylic acid (4-pyrrolidin-1-yl-phenyl)-amide] | 0.118
O=C(Nc1ccc(N2CCOCC2)cc1)N1CCC(c2ncnc3cc(N4CCN(CCO)CC4)ccc23)CC1 [Example 137, 4-{7-[4-(2-Hydroxy-ethyl)-piperazin-1-yl]-quinazolin-4-yl}-piperidine-1-carboxylic acid (4-morpholin-4-yl-phenyl)-amide] | 0.041
CN(C)[C@@H]1CCN(c2ccc3c(C4CCN(C(=O)Nc5ccc(N6CCOCC6)cc5)CC4)ncnc3c2)C1 [Example 150, (R)-4-[7-(3-Dimethylamino-pyrrolidin-1-yl)-quinazolin-4-yl]-piperidine-1-carboxylic acid (4-morpholin-4-yl-phenyl)-amide] | 0.019
O=C(Nc1ccc(N2CCCC2)cc1)N1CCC(c2ncnc3cc(OCC4CCOCC4)ccc23)CC1 [Compound 188, 4-[7-(Tetrahydro-pyran-4-ylmethoxy)-quinazolin-4-yl]-piperidine-1-carboxylic acid (4-pyrrolidin-1-yl-phenyl)-amide] | 0.093
O=C(Nc1ccc(N2CCOCC2)cc1)N1CCC(c2ncnc3cc(N4CCOCC4)ccc23)CC1 [Example 145, 4-(7-Morpholin-4-yl-quinazolin-4-yl)-piperidine-1-carboxylic acid (4-morpholin-4-yl-phenyl)-amide] | 0.014
O=C(Nc1ccc(N2CCCC2)cc1)N1CCC(c2ncnc3cc(N4CCN(c5ccccn5)CC4)ccc23)CC1 [Compound 192, 4-[7-(4-Pyridin-2-yl-piperazin-1-yl)-quinazolin-4-yl]-piperidine-1-carboxylic acid (4-pyrrolidin-1-yl-phenyl)-amide] | 0.001
O=C(Nc1ccc(N2CCOCC2)cc1)N1CCC(c2ncnc3cc(N4CCNCC4)ccc23)CC1 [Example 140, 4-(7-Piperazin-1-yl-quinazolin-4-yl)-piperidine-1-carboxylic acid (4-morpholin-4-yl-phenyl)-amide] | 0.031
CN(C)CC(=O)N1CCN(c2ccc3c(C4CCN(C(=O)Nc5ccc(N6CCOCC6)cc5)CC4)ncnc3c2)CC1 [Example 144, 4-{7-[4-(2-Dimethylamino-acetyl)-piperazin-1-yl]-quinazolin-4-yl}-piperidine-1-carboxylic acid (4-morpholin-4-yl-phenyl)-amide] | 0.17
O=C(Nc1ccc(N2CCCC2)cc1)N1CCC(c2ncnc3cc(O[C@H]4CCOC4)ccc23)CC1 [Compound 190, (S)-4-[7-(Tetrahydro-furan-3-yloxy)-quinazolin-4-yl]-piperidine-1-carboxylic acid (4-pyrrolidin-1-yl-phenyl)-amide] | 0.109
O=C(Nc1ccc(N2CCCC2)cc1)N1CCC(c2ncnc3cc(O[C@@H]4CCOC4)ccc23)CC1 [Compound 191, (R)-4-[7-(Tetrahydro-furan-3-yloxy)-quinazolin-4-yl]-piperidine-1-carboxylic acid (4-pyrrolidin-1-yl-phenyl)-amide] | 0.144
COc1cc2ncnc(C3CCN(C(=O)Nc4ccc(N5CCOCC5)cc4)CC3)c2cc1OC [Example 18, 4-(6,7-Dimethoxy-quinazolin-4-yl)-piperidine-1-carboxylic acid (4-morpholin-4-yl-phenyl)-amide] | 0.104
CS(=O)(=O)N1CCN(CCCOc2ccc3c(C4CCN(C(=O)Nc5ccc(N6CCCC6)cc5)CC4)ncnc3c2)CC1 [Example 164, 4-{7-[3-(4-Methanesulfonyl-piperazin-1-yl)-propoxy]-quinazolin-4-yl}-piperidine-1-carboxylic acid (4-pyrrolidin-1-yl-phenyl)-amide] | 0.011
CC(=O)N1CCN(c2ccc3c(C4CCN(C(=O)Nc5ccc(N6CCCC6)cc5)CC4)ncnc3c2)CC1 [Example 166, 4-[7-(4-Acetyl-piperazin-1-yl)-quinazolin-4-yl]-piperidine-1-carboxylic acid (4-pyrrolidin-1-yl-phenyl)-amide] | 0.016
COc1cc2ncnc(C3CCN(C(=O)Nc4ccc(OC5CCC5)nc4)CC3)c2cc1OC [Example 17, 4-(6,7-Dimethoxy-quinazolin-4-yl)-piperidine-1-carboxylic acid (6-cyclobutoxy-pyridin-3-yl)-amide] | 0.292
CN1CCC[C@H]1COc1ccc2c(C3CCN(C(=O)Nc4ccc(N5CCCC5)cc4)CC3)ncnc2c1 [Example 151, (S)-4-[7-(1-Methyl-pyrrolidin-2-ylmethoxy)-quinazolin-4-yl]-piperidine-1-carboxylic acid (4-pyrrolidin-1-yl-phenyl)-amide] | 0.045
O=C(Nc1ccc(N2CCCC2)cc1)N1CCC(c2ncnc3cc(N4CCN(c5ncccn5)CC4)ccc23)CC1 [Compound 193, 4-[7-(4-Pyrimidin-2-yl-piperazin-1-yl)-quinazolin-4-yl]-piperidine-1-carboxylic acid (4-pyrrolidin-1-yl-phenyl)-amide] | 0.003
CN1CCCN(c2ccc3c(C4CCN(C(=O)Nc5ccc(N6CCOCC6)cc5)CC4)ncnc3c2)CC1 [Example 138, 4-[7-(4-Methyl-[1,4]diazepan-1-yl)-quinazolin-4-yl]-piperidine-1-carboxylic acid (4-morpholin-4-yl-phenyl)-amide] | 0.107
CS(=O)(=O)N1CCN(c2ccc3c(C4CCN(C(=O)Nc5ccc(N6CCOCC6)cc5)CC4)ncnc3c2)CC1 [Example 142, 4-[7-(4-Methanesulfonyl-piperazin-1-yl)-quinazolin-4-yl]-piperidine-1-carboxylic acid (4-morpholin-4-yl-phenyl)-amide] | 0.005
COc1cc2ncnc(C3CCN(C(=O)Nc4ccc(OC(C)C)cc4)CC3)c2cc1OC [Example 1, 4-(6,7-Dimethoxy-quinazolin-4-yl)-piperidine-1-carboxylic acid (4-isopropoxy-phenyl)-amide hydrochloride] | 0.017
COc1cc2ncnc(C3CCN(C(=O)Nc4ccc(CO)cc4)CC3)c2cc1OC [Example 22, 4-(6,7-Dimethoxy-quinazolin-4-yl)-piperidine-1-carboxylic acid (4-hydroxymethyl-phenyl)-amide] | 5.1
CC(C)Oc1ccc(NC(=O)N2CCC(c3ncnc4ccc(N5CCN(C)CC5)cc34)CC2)cc1 [Example 131, 4-[6-(4-Methyl-piperazin-1-yl)-quinazolin-4-yl]-piperidine-1-carboxylic acid (4-isopropoxy-phenyl)-amide] | 0.226
O=C(Nc1ccc(N2CCCC2)cc1)N1CCC(c2ncnc3cc(OCCO)ccc23)CC1 [Example 169, 4-[7-(2-Hydroxy-ethoxy)-quinazolin-4-yl]-piperidine-1-carboxylic acid (4-pyrrolidin-1-yl-phenyl)-amide] | 0.002
